# Assay results published in patent US20120122727A1, “IN VITRO METHOD FOR PREDICTING WHETHER A COMPOUND IS GENOTOXIC IN VIVO” (priority 2009, published 2012).
# Assays:
# [1] = test system: primary mouse hepatocytes; test: Gene expression (Affymetrix Mouse Genome 430 2.0) in primary mouse hepatocytes, true vs false GTX, 24 h and 48 h; conditions: log2, corrected for vehicle control
# [2] = test system: primary mouse hepatocytes
compound,measurement,setting,value
"c1ccc2c(c1)cc1ccc3cccc4ccc2c1c34 [BaP, Benzo(a)pyrene]",Gene expression data AF000969 (Cadps2),[1]; 24 h average,−1.91
same,Gene expression data AF022072 (Grb10),[1]; 24 h average,−0.2844
same,Gene expression data AF065917 (Lif),[1]; 24 h average,0.9227
same,Gene expression data AF297615 (Ggta1),[1]; 24 h average,1.735
same,Gene expression data AI594683 (Dmn),[1]; 24 h average,0.731
same,Gene expression data AI596632 (Ptprg /// LOC632664),[1]; 24 h average,−1.8362
same,Gene expression data AI987929 (Ndrg1),[1]; 24 h average,−0.3648
same,Gene expression data AK004419 (Fbxl17),[1]; 24 h average,−1.001
same,Gene expression data AK005731 (1700007K13Rik),[1]; 24 h average,2.016
same,Gene expression data AK007766 (1810044A24Rik),[1]; 24 h average,−1.288
same,Gene expression data AK007854 (1810053B23Rik),[1]; 24 h average,0.3514
same,Gene expression data AK009736 (Gpr137b /// LOC664862 /// LOC673335),[1]; 24 h average,0.2174
same,Gene expression data AK010447 (Smyd3),[1]; 24 h average,−1.0413
same,Gene expression data AK014608 (4632434l11Rik),[1]; 24 h average,1.665
same,Gene expression data AK019979 (2610528E23Rik),[1]; 24 h average,−0.6154
same,Gene expression data AV095209 (Mthfd1l),[1]; 24 h average,−0.5885
same,Gene expression data AV141095 (1110033M05Rik),[1]; 24 h average,−1.058
same,Gene expression data AV173571 (1700106N22Rik),[1]; 24 h average,−1.123
same,Gene expression data AV219418 (Ldhb),[1]; 24 h average,0.2781
same,Gene expression data AV223474 (Zdhhc14),[1]; 24 h average,−1.375
same,Gene expression data AV298304 (Homez),[1]; 24 h average,0.6204
same,Gene expression data AV327248 (Zfp365 /// LOC674611),[1]; 24 h average,1.102
same,Gene expression data AV377066 (9130221J18Rik),[1]; 24 h average,0.7572
same,Gene expression data AW240761 (Tbc1d5),[1]; 24 h average,−0.703
same,Gene expression data AW543460 (Pard3),[1]; 24 h average,−0.6194
same,Gene expression data AW543723,[1]; 24 h average,1.993
same,Gene expression data AW986246 (Maoa),[1]; 24 h average,0.1617
same,Gene expression data BB027848 (4732466D17Rik),[1]; 24 h average,0.0761
same,Gene expression data BB043558 (9230114K14Rik),[1]; 24 h average,1.247
same,Gene expression data BB275142 (AW456874),[1]; 24 h average,1.003
same,Gene expression data BB308836 (Ppm1l),[1]; 24 h average,−0.6122
same,Gene expression data BB318221 (Zdhhc14),[1]; 24 h average,−1.679
same,Gene expression data BB463610 (4632434l11Rik),[1]; 24 h average,2.144
same,Gene expression data BB526605 (Mipol1),[1]; 24 h average,−0.7419
same,Gene expression data BB770528 (Rai2),[1]; 24 h average,0.6977
same,Gene expression data BB821363 (Scfd2),[1]; 24 h average,−1.403
same,Gene expression data BC004827 (Psat1),[1]; 24 h average,−0.04097
same,Gene expression data BC008626 (Icam1),[1]; 24 h average,0.8234
same,Gene expression data BC010462 (BC010462),[1]; 24 h average,0.6663
same,Gene expression data BC012247 (Dcxr),[1]; 24 h average,0.4451
same,Gene expression data BC012260 (Psmf1),[1]; 24 h average,0.3127
same,Gene expression data BC015270 (Hist2h3c2),[1]; 24 h average,0.7908
same,Gene expression data BC016073 (Cdkal1),[1]; 24 h average,−0.6631
same,Gene expression data BC016265 (Ube2e2),[1]; 24 h average,−0.751
same,Gene expression data BC019882 (Acaa1b),[1]; 24 h average,2.0133
same,Gene expression data BC025501 (Aaas),[1]; 24 h average,1.5389
same,Gene expression data BC025837 (Sbk1),[1]; 24 h average,0.3802
same,Gene expression data BC025915 (Cova1),[1]; 24 h average,−0.5396
same,Gene expression data BC026422 (Tgm1),[1]; 24 h average,0.6019
same,Gene expression data BF719766 (Thyn1),[1]; 24 h average,0.9747
same,Gene expression data BG065754 (Ccng1),[1]; 24 h average,0.8607
same,Gene expression data BG066903 (Kif16b),[1]; 24 h average,−0.133
same,Gene expression data BG069873 (Gnb1l),[1]; 24 h average,1.299
same,Gene expression data BG070887 (Gtdc1),[1]; 24 h average,−0.9734
same,Gene expression data BG076151 (Ppm1d),[1]; 24 h average,0.728
same,Gene expression data BG261907 (Large),[1]; 24 h average,−1.3429
same,Gene expression data BI651416 (Cdc42bpg),[1]; 24 h average,1.679
same,Gene expression data BI660702 (Ell3),[1]; 24 h average,1.3867
same,Gene expression data BM198879 (Ercc5),[1]; 24 h average,1.054
same,Gene expression data BM230508 (A030007D23Rik),[1]; 24 h average,1.297
same,Gene expression data NM_007987 (Fas),[1]; 24 h average,0.8287
same,Gene expression data NM_008522 (Ltf),[1]; 24 h average,1.114
same,Gene expression data NM_008576 (Abcc1),[1]; 24 h average,0.1024
same,Gene expression data NM_011176 (St14),[1]; 24 h average,1.508
same,Gene expression data NM_011316 (Saa4),[1]; 24 h average,0.1871
same,Gene expression data NM_012006 (Acot1),[1]; 24 h average,3.255
same,Gene expression data NM_013866 (Zfp385),[1]; 24 h average,0.776
same,Gene expression data NM_018770 (Igsf4a),[1]; 24 h average,−0.8982
same,Gene expression data NM_021451 (Pmaip1),[1]; 24 h average,0.6364
same,Gene expression data NM_025770 (Atg10),[1]; 24 h average,−1.053
same,Gene expression data NM_028803 (Gbe1),[1]; 24 h average,−0.5416
same,Gene expression data NM_030697 (Ankrd47),[1]; 24 h average,1.4578
same,Gene expression data NM_053168 (Trim11),[1]; 24 h average,0.823
same,Gene expression data NM_134188 (Acot2),[1]; 24 h average,0.5856
same,Gene expression data Y15910 (Diap2),[1]; 24 h average,−1.352
same,Gene expression AA561726 average,[1]; 48 h,−1.7432
same,Gene expression AF000969 average,[1]; 48 h,−2.251
same,Gene expression AF022072 average,[1]; 48 h,−1.018
same,Gene expression AF033112 average,[1]; 48 h,1.4254
same,Gene expression AF055573 average,[1]; 48 h,−1.5573
same,Gene expression AF069954 average,[1]; 48 h,0.8863
same,Gene expression AF297615 average,[1]; 48 h,1.572
same,Gene expression AF335325 average,[1]; 48 h,1.4875
same,Gene expression AI594683 average,[1]; 48 h,1.466
same,Gene expression AI747296 average,[1]; 48 h,−2.124
same,Gene expression AK005731 average,[1]; 48 h,3.0498
same,Gene expression AK007854 average,[1]; 48 h,1.6125
same,Gene expression AK010447 average,[1]; 48 h,−1.207
same,Gene expression AK010738 average,[1]; 48 h,0.9112
same,Gene expression AK014608 average,[1]; 48 h,1.245
same,Gene expression AK017734 average,[1]; 48 h,0.7529
same,Gene expression AK018383 average,[1]; 48 h,1.273
same,Gene expression AK019979 average,[1]; 48 h,−1.0966
same,Gene expression AV095209 average,[1]; 48 h,−0.7654
same,Gene expression AV141095 average,[1]; 48 h,−1.4056
same,Gene expression AV173869 average,[1]; 48 h,−1.924
same,Gene expression AV216768 average,[1]; 48 h,−1.447
same,Gene expression AV219418 average,[1]; 48 h,1.558
same,Gene expression AV221299 average,[1]; 48 h,−1.169
same,Gene expression AV246296 average,[1]; 48 h,1.1524
same,Gene expression AV251625 average,[1]; 48 h,1.731
same,Gene expression AV254764 average,[1]; 48 h,1.48
same,Gene expression AV327248 average,[1]; 48 h,2.067
same,Gene expression BB009155 average,[1]; 48 h,0.784
same,Gene expression BB027848 average,[1]; 48 h,0.4738
same,Gene expression BB043558 average,[1]; 48 h,1.692
same,Gene expression BB046347 average,[1]; 48 h,0.7766
same,Gene expression BB140436 average,[1]; 48 h,−0.4572
same,Gene expression BB204486 average,[1]; 48 h,−1.5693
same,Gene expression BB223872 average,[1]; 48 h,1.1634
same,Gene expression BB246912 average,[1]; 48 h,−1.54
same,Gene expression BB275142 average,[1]; 48 h,1.0559
same,Gene expression BB458460 average,[1]; 48 h,−1.384
same,Gene expression BB463610 average,[1]; 48 h,1.672
same,Gene expression BB730977 average,[1]; 48 h,0.4218
same,Gene expression BB743970 average,[1]; 48 h,1.51
same,Gene expression BB770528 average,[1]; 48 h,0.7877
same,Gene expression BB781615 average,[1]; 48 h,0.9271
same,Gene expression BC003284 average,[1]; 48 h,0.7313
same,Gene expression BC004827 average,[1]; 48 h,−1.186
same,Gene expression BC005552 average,[1]; 48 h,−0.2121
same,Gene expression BC006713 average,[1]; 48 h,0.4721
same,Gene expression BC010318 average,[1]; 48 h,−0.5529
same,Gene expression BC012247 average,[1]; 48 h,1.477
same,Gene expression BC012955 average,[1]; 48 h,−0.9445
same,Gene expression BC013893 average,[1]; 48 h,1.04
same,Gene expression BC017615 average,[1]; 48 h,−2.234
same,Gene expression BC019379 average,[1]; 48 h,−1.9807
same,Gene expression BC019882 average,[1]; 48 h,2.16
same,Gene expression BC021352 average,[1]; 48 h,0.7052
same,Gene expression BC022148 average,[1]; 48 h,1.324
same,Gene expression BC025169 average,[1]; 48 h,−0.5114
same,Gene expression BC026131 average,[1]; 48 h,−1.045
same,Gene expression BC027026 average,[1]; 48 h,1.379
same,Gene expression BC027121 average,[1]; 48 h,1.345
same,Gene expression BC027185 average,[1]; 48 h,0.7081
same,Gene expression BE956581 average,[1]; 48 h,1.451
same,Gene expression BF719766 average,[1]; 48 h,0.9507
same,Gene expression BG065754 average,[1]; 48 h,0.9746
same,Gene expression BG066491 average,[1]; 48 h,−2.098
same,Gene expression BG076151 average,[1]; 48 h,0.7599
same,Gene expression BG076333 average,[1]; 48 h,−0.4091
same,Gene expression BG797099 average,[1]; 48 h,1.8809
same,Gene expression BG967046 average,[1]; 48 h,0.5936
same,Gene expression BI651416 average,[1]; 48 h,1.9573
same,Gene expression BI966443 average,[1]; 48 h,1.3186
same,Gene expression BM198879 average,[1]; 48 h,0.8089
same,Gene expression BM200015 average,[1]; 48 h,1.0174
same,Gene expression BM230508 average,[1]; 48 h,1.158
same,Gene expression BM936480 average,[1]; 48 h,3.0213
same,Gene expression BQ174991 average,[1]; 48 h,−1.408
same,Gene expression L21027 average,[1]; 48 h,−1.779
same,Gene expression NM_007556 average,[1]; 48 h,−1.089
same,Gene expression NM_007980 average,[1]; 48 h,1.753
same,Gene expression NM_007987 average,[1]; 48 h,1.353
same,Gene expression NM_008522 average,[1]; 48 h,2.9351
same,Gene expression NM_008935 average,[1]; 48 h,−1.4799
same,Gene expression NM_009897 average,[1]; 48 h,1.182
same,Gene expression NM_011075 average,[1]; 48 h,1.198
same,Gene expression NM_011176 average,[1]; 48 h,1.4287
same,Gene expression NM_011316 average,[1]; 48 h,0.8735
same,Gene expression NM_012006 average,[1]; 48 h,2.867
same,Gene expression NM_013642 average,[1]; 48 h,−1.442
same,Gene expression NM_013738 average,[1]; 48 h,0.9012
same,Gene expression NM_013929 average,[1]; 48 h,1.062
same,Gene expression NM_018881 average,[1]; 48 h,3.369
same,Gene expression NM_019738 average,[1]; 48 h,−2.586
same,Gene expression NM_030697 average,[1]; 48 h,1.3687
same,Gene expression NM_053122 average,[1]; 48 h,−1.795
same,Gene expression NM_134147 average,[1]; 48 h,−1.2396
same,Gene expression NM_134188 average,[1]; 48 h,0.2884
same,Gene expression X62701 average,[1]; 48 h,−1.2338
same,Gene expression data AF204959 (Cyp3a25 /// LOC622249),[2],0.3057
